Data taken from patent US20240207369A1, “In Vitro Drugs from Prodrugs and Use Thereof” (Brandenburgische Tehnische Universitat Cottbus-Senftenberg, priority 2021, published 2024).

Tested on: human thrombocytes (platelets)
Test: ADP-induced platelet aggregation in whole blood, impedance aggregometry (Multiplate Analyzer)
Assay type: cell-based
Conditions: ADP 10 μM final; two-minute pre-incubation of the metabolite in blood of an apparently healthy subject; final metabolite concentration 0.31 mg per 1 mL; approx. 73% purity; FIG. 2
Procedure: Example of embodiment of the effect of a metabolite produced via peroxygenase on human platelets (blood platelets).
The metabolite is present as a powder (approx. 4 mg) in a dark container and is stored in a freezer at at least −80° C. until the solution is prepared. On the day of use, the drug is dissolved in 500 μl of a suitable sterile solvent (here: phosphate-buffered saline, PBS). Powder and solvent are mixed rigorously. The complete dissolution of the powder is to be visually checked. The mixture is stored on ice or at approx. 0° C. until use.
To test the functionality of the agent, the aggregation of human thrombocytes (platelets) in whole blood is determined by impedance aggregometry (Paniccia, R.; Antonucci, E.; Maggini, N.; Romano, E.; Gori, A. M.; Marcucci, R.; Prisco, D.; Abbate, R. Assessment of Platelet Function on Whole Blood by Multiple Electrode Aggregometry in High-Risk Patients with Coronary Artery Disease Receiving Antiplatelet Therapy. American journal of clinical pathology 2009, 131, 834-42, doi:10.1309/AJCPTE3K1SGAPOIZ). For the test, approximately 5 ml of fresh whole blood is collected from a visible vein at the elbow (cubital vein) of a subject by an appropriately trained person using appropriate sterile blood collection equipment. The blood is collected into a collection vessel designed for this purpose (e.g. Sarstedt Monovette, Sarstedt, Numbrecht, Germany). […]

In the case of COC(=O)[C@H](c1ccccc1Cl)N1CCC(S)C(=CC(=O)O)C1 (stereo partly drawn) [metabolite, 2-(1-((S)-1-(2-chlorophenyl)-2-methoxy-2-oxoethyl)-4-mercaptopiperidin-3-ylidene)acetic acid], the ADP-induced platelet aggregation is reported as “reduction of ADP-induced platelet aggregation”.
